Legend:
[1] = format: physicochemical; conditions: for remaining rate of the active ingredient, Initial: 0 h; for remaining rate of the active ingredient, 3 days: 72 h; for remaining rate of the active ingredient, 7 days: 168 h; for remaining rate of the active ingredient, 14 days: 336 h; for remaining rate of the active ingredient, 28 days: 672 h
rats = conditions: rat, in vivo; cited from earlier work

remaining rate of the active ingredient, Initial [1]	remaining rate of the active ingredient, 3 days [1]	remaining rate of the active ingredient, 7 days [1]	remaining rate of the active ingredient, 14 days [1]	remaining rate of the active ingredient, 28 days [1]	SMILES	LD50 (the lethal dose causing death in 50% of rats on oral administration) (rats)
100.0	100%	100%	100%	100%	O=C(O)CCCCC1CCSS1 (racemic) [Piperazine dithioctate, Piperazine Dithioctate]	–
100.0	99.8%	99.6%	98.9%	97.8%	O=C(O)CCCCC1CCSS1 (stereo not shown) [Thioctic acid]	–
–	–	–	–	–	C1CNCCN1 [piperazine]	1900 mg/kg
100.0	100%	100%	100%	100%	NC(CO)(CO)CO.O=C(O)CCCCC1CCSS1 (stereo not shown) [Tromethamine thioctate, Tromethamine Thioctate]	–

From patent US8541601B2, “Piperazine dithioctate and pharmaceutical composition comprising the same” (Celltrion Chemical Research Institute, priority 2009, dated 2013)
